Test results taken from paper PMC10304387, “In Vitro and In Silico Evaluation of Anticholinesterase and Antidiabetic Effects of Furanolabdanes and Other Constituents from Graptophyllum pictum (Linn.) Griffith” (Molecules, 2023).
Values after ≈ are worked out from the molar mass of the structure shown. Like-named read-outs stand apart in the source and are kept apart here.

Columns and labels:
[1] = target: T1, acetylcholinesterase (AChE) (Electrophorus electricus, UniProt O42275); assay: biochemical; conditions: for inhibition at 100 µg/mL: read-out: percentage inhibition of AChE, at 100 µg/mL
α-glucosidase = α-glucosidase inhibitory activity (PNPG substrate); set-up: IC50 ± SEM (α-glucosidase): unit not given beside the values; conditions: for IC50 α-Glucosidase: mean ± SEM of three measurements, highest test concentration 100 µg/mL; for IC50 ± SEM (α-glucosidase): Table 2 prints no unit, repeats Table 1 values; for percentage inhibition of α-glucosidase: at 100 µg/mL
[2] = target: butyrylcholinesterase (BChE) (Equus caballus, UniProt P81908); assay: biochemical; conditions: for inhibition at 100 µg/mL: read-out: percentage inhibition of BChE
Experimental: The anticholinesterase activity of the extracts and compounds was determined spectrophotometrically via the acetylcholinesterase (AChE) and butyrylcholinesterase (BChE) enzyme inhibition assay method described by Ellman with minor modifications [62, 63]. AChE and BChE from electric eel and horse serum, respectively, were used. The substrates of the reactions were acetylthiocholine iodide and butyrylthiocholine chloride. The activity of the cholinesterase was monitored using DTNB (5,5′-Dithio-bis(2-nitrobenzoic) acid). […] A Multiskan Go microplate reader spectrophotometer (Thermo Fischer Scientific, Waltham, MA, USA) was used to read optical densities.

α-amylase = target: T2, α-amylase (Sus scrofa, UniProt P00690); assay: α-amylase inhibition (starch–iodine method); conditions: for inhibition at 100 µg/mL: read-out: percentage inhibition of α-amylase
T2 sequence (P00690 16-511): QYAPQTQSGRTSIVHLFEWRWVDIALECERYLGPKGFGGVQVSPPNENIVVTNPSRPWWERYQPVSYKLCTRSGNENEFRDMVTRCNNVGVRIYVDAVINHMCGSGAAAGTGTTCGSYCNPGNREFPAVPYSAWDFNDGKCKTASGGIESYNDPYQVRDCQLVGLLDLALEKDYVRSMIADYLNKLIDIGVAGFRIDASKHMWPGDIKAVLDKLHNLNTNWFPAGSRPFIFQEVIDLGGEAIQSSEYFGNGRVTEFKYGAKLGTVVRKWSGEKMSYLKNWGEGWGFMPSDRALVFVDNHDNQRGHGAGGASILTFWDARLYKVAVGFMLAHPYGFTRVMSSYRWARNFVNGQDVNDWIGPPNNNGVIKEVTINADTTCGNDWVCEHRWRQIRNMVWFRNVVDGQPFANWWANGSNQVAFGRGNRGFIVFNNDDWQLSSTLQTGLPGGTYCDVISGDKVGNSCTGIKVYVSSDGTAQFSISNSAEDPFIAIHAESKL
Experimental: The inhibition of α-amylase was determined using starch–iodine method with few modifications [64, 65]. Next, 50 µL of α-amylase from porcine pancreas in pH 6.9 phosphate buffer prepared with 6 mM NaCl and 25 µL of sample solutions was mixed in a 96-well microplate. The mixture was pre-incubated for 10 min at 37 °C. Next, 50 µL of starch solution (0.05%) was added and incubated for 10 min at 37 °C. Following incubation, the reaction was completed by adding HCl (0.1 M, 25 µL) and Lugol (100 µL) solutions, and the absorbance was recorded at 630 nm using a Multiskan Go microplate reader spectrophotometer (Thermo Fischer Scientific, Waltham, MA, USA).

[3] = target: T1, acetylcholinesterase (AChE); conditions: read-out: IC50 ± SEM (Acetylcholinesterase); Table 2 prints no unit; repeats Table 1 values

T1 sequence (O42275 24-633): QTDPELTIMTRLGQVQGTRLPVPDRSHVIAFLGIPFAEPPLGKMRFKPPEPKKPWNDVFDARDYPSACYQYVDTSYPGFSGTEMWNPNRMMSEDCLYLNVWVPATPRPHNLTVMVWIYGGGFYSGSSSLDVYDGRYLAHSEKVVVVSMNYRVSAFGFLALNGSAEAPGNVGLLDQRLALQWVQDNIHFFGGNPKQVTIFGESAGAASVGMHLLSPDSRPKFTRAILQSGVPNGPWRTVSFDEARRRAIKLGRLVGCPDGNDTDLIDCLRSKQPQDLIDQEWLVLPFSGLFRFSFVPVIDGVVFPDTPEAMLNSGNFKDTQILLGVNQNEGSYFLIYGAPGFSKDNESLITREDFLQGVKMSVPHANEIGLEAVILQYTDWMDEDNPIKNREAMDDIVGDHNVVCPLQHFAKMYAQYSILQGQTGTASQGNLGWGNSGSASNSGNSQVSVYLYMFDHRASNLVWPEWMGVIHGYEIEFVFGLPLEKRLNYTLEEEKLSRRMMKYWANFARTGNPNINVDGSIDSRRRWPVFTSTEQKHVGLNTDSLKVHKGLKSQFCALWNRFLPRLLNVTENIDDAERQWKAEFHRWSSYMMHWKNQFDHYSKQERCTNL
butyrylcholinesterase (BChE), sequence (P81908 whole entry): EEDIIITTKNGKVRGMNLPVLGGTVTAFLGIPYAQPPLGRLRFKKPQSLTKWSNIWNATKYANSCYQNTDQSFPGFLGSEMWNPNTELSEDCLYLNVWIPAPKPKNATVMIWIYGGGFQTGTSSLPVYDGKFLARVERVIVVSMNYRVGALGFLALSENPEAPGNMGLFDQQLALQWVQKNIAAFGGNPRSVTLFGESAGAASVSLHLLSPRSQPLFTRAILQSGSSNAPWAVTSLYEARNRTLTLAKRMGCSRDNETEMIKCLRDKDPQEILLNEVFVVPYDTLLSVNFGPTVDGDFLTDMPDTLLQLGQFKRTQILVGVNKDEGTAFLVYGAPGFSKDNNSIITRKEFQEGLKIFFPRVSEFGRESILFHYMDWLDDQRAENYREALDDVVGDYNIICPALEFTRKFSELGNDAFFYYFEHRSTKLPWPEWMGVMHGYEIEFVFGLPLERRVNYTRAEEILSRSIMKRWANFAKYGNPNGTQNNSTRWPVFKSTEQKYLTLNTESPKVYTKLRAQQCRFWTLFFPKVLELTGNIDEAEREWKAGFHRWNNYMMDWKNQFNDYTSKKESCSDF

SMILES	IC50 [1] [µM]	inhibition at 100 µg/mL [1] [%]	IC50 α-Glucosidase (α-glucosidase) [µg/mL]	IC50 [2] [µM]	IC50 (α-amylase) [µM]	IC50 [3] [µM]	IC50 ± SEM (α-glucosidase) (α-glucosidase)	percentage inhibition of α-glucosidase (α-glucosidase) [%]	inhibition at 100 µg/mL [2] [%]	inhibition at 100 µg/mL (α-amylase) [%]
CC[C@H](/C=C/[C@@H](C)[C@H]1CC[C@H]2[C@@H]3CC=C4C[C@@H](O[C@@H]5O[C@H](CO)[C@@H](O)[C@H](O)[C@H]5O)CC[C@]4(C)[C@H]3CC[C@]12C)C(C)C [Stigmasterol glucoside, Stigmasterol 3-O-β-D-glucopyranoside]	> 174	25.2 ± 0.94	>100	> 174	> 174	–	–	–	–	–
CC1=CC2OC3OCC4(CCCC3(C)C24)C1CC(=O)c1ccoc1 (stereo not drawn) [Hypopurin E]	> 304	20.4 ± 0.56	76.33 ± 1.10 (≈ 232 µM)	265	225	> 304	76.33 ± 1.10	54.79 ± 0.85	52.8 ± 1.07	53.9 ± 0.52
COc1ccc2c3c1O[C@H]1C[C@@H](O)C=C[C@@]31CCN(C)C2 [Galantamine, galantamine, reference compound]	–	–	–	–	–	–	–	–	73.85 ± 0.3	–
C[C@H]1O[C@H](O[C@H]2[C@H](O)[C@@H](O)[C@@H](O[C@H]3[C@H](O)[C@@H](O)C(O)O[C@@H]3CO)O[C@@H]2CO)[C@H](O)[C@@H](O)[C@@H]1N[C@H]1C=C(CO)[C@@H](O)[C@H](O)[C@H]1O (stereo partly drawn) [Acarbose, acarbose, reference compound]	–	–	–	–	–	–	–	51.35 ± 0.65	–	75.84 ± 0.52
CC1=C[C@H]2OC(=O)[C@@]3(C)CCC[C@@](C)([C@@H]23)[C@H]1CC(=O)c1ccoc1 [Hypopurin A]	> 304	40.2 ± 0.75	99.25 ± 0.96 (≈ 302 µM)	177	185	> 304	99.25 ± 0.96	50.13 ± 0.81	64.8 ± 0.93	65.8 ± 0.84
C=C(C)[C@@H]1CC[C@]2(C)CC[C@]3(C)[C@H](CC[C@@H]4[C@@]5(C)CC[C@H](O)C(C)(C)[C@@H]5CC[C@]43C)[C@@H]12 [Lupeol]	> 234	–	69.75 ± 0.42 (≈ 163 µM)	> 234	> 234	–	–	60.91 ± 0.76	–	–
CC[C@H](CC[C@@H](C)[C@H]1CC[C@H]2[C@@H]3CC=C4C[C@@H](O[C@@H]5O[C@H](CO)[C@@H](O)[C@H](O)[C@H]5O)CC[C@]4(C)[C@H]3CC[C@]12C)C(C)C [β-Sitosterol glucoside, 3β-O-D-glucopyranosyl-β-sitosterol]	> 173	30.45 ± 0.23	>100	> 173	> 173	–	–	–	–	–
CC1=C[C@H]2OC3OC(=O)[C@@]4(C)CCC[C@@]3([C@@H]24)[C@H]1CC(=O)c1ccoc1 [Hypopurin B]	> 292	24.8 ± 0.33	71.41 ± 0.98 (≈ 209 µM)	196	203	> 292	71.41 ± 0.98	51.95 ± 0.63	61.8 ± 1.15	56.68 ± 0.24
